Data on three compounds can be found in patent publication US9833455B2, “Preparation and methods of use for ortho-aryl 5-membered heteroaryl-carboxamide containing multi-targeted kinase inhibitors” (Spacefill Enterprises LLC, priority 2011, dated 2017).

Test [1] concerns the target ABL1 (Homo sapiens, UniProt P00519). The experiment in a line: Nanosyn kinase profiling, % inhibition. To be noted: panel of 230 kinases. In kind it is biochemical. The protocol: (§1) “Inhibiting kinase activity” means to decrease the production of an phosphor-peptide by a particular kinase that can be separated by analytical techniques. For example, a comprehensive platform of kinase, protease, phosphatase and epigenetic assays that utilizes cutting-edge microfluidics and informatics tools to provide accurate and rapid results. Profiling data in this application were determined using these techniques at Nanosyn Inc. IC50 data were provided by Reaction Biology Inc using a P33 radiolabeled kinase assay.
(§2) More modest activity for Aurora-A, FLT-1/4, KDR, KIT, PDGFRs was accompanied by better activity for B-Raf mutant and wild-type forms, Modest inhibition of MEK-1, BTK, c-Met, RET, and RON was also observed. […] Moreover, the observed inhibition of MEK-1 with 1-12 and TYK2 with I-6 represents additional activities against kinases for which no type-II inhibitors have been reported to date. […] To further evaluate the scope of inhibition, I-6 was evaluated against a larger panel of 230 kinases, Table-22.

In test [2] the target is ARG (Homo sapiens, UniProt P42684). Description: Nanosyn kinase profiling, % inhibition. In kind it is biochemical. To be noted: panel of 230 kinases. Here is the method:
as §1, §2

Test [3] deals with AXL (Homo sapiens, UniProt P30530). Description: Nanosyn kinase profiling, % inhibition. The format is biochemical. To be noted: panel of 230 kinases. The protocol:
as §1, §2

In test [4] the target is BLK (Homo sapiens, UniProt P51451). Description: Nanosyn kinase profiling, % inhibition. The format is biochemical. To be noted: panel of 230 kinases. The protocol: as §1, §2
For test [5], the target named is EPH-A1 (Homo sapiens, UniProt P21709). The experiment in a line: Nanosyn kinase profiling, % inhibition. To be noted: panel of 230 kinases. The format is biochemical. The protocol: as §1, §2
The target of test [6] is EPH-A3 (Homo sapiens, UniProt P29320). The experiment in a line: Nanosyn kinase profiling, % inhibition. To be noted: panel of 230 kinases. The format is biochemical. The protocol: as §1, §2
Test [7] deals with EPH-A4 (Homo sapiens, UniProt P54764). Description: Nanosyn kinase profiling, % inhibition. To be noted: panel of 230 kinases. In kind it is biochemical. The protocol:
as §1, §2

The target in test [8] is EPH-A5 (Homo sapiens, UniProt P54756). Description: Nanosyn kinase profiling, % inhibition. In kind it is biochemical. To be noted: panel of 230 kinases. Here is the method:
as §1, §2

The target of test [9] is EPH-B2 (Homo sapiens, UniProt P29323). Description: Nanosyn kinase profiling, % inhibition. The format is biochemical. To be noted: panel of 230 kinases. The protocol: as §1, §2
Test [10] deals with EPH-B4 (Homo sapiens, UniProt P54760). Description: Nanosyn kinase profiling, % inhibition. The format is biochemical. To be noted: panel of 230 kinases. Here is the method:
as §1, §2

Test [11] concerns the target FER (Homo sapiens, UniProt P16591). The experiment in a line: Nanosyn kinase profiling, % inhibition. To be noted: panel of 230 kinases. In kind it is biochemical. Here is the method: as §1, §2
Test [12] addresses FGR (Homo sapiens, UniProt P09769). Description: Nanosyn kinase profiling, % inhibition. The format is biochemical. To be noted: panel of 230 kinases. Here is the method:
as §1, §2

The target of test [13] is HCK (Homo sapiens, UniProt P08631). Description: Nanosyn kinase profiling, % inhibition. In kind it is biochemical. To be noted: panel of 230 kinases. Here is the method:
as §1, §2

Test [14] concerns the target HIPK3 (Homo sapiens, UniProt Q9H422). The experiment in a line: Nanosyn kinase profiling, % inhibition. In kind it is biochemical. To be noted: panel of 230 kinases. The protocol: as §1, §2
In test [15] the target is HIPK4 (Homo sapiens, UniProt Q8NE63). Description: Nanosyn kinase profiling, % inhibition. The format is biochemical. To be noted: panel of 230 kinases. Here is the method:
as §1, §2

Test [16] addresses LOK (Homo sapiens, UniProt O94804). The experiment in a line: Nanosyn kinase profiling, % inhibition. To be noted: panel of 230 kinases. The format is biochemical. Here is the method:
as §1, §2

Test [17] deals with LYNA (Homo sapiens, UniProt P07948). Description: Nanosyn kinase profiling, % inhibition. In kind it is biochemical. To be noted: panel of 230 kinases. Here is the method: as §1, §2
The target of test [18] is LYNB (Homo sapiens, UniProt P07948). The experiment in a line: Nanosyn kinase profiling, % inhibition. In kind it is biochemical. To be noted: panel of 230 kinases. The protocol:
as §1, §2

The target of test [19] is MAP4K5 (Homo sapiens, UniProt Q9Y4K4). The experiment in a line: Nanosyn kinase profiling, % inhibition. In kind it is biochemical. To be noted: panel of 230 kinases. Here is the method:
as §1, §2

The target in test [20] is MEK2 (Homo sapiens, UniProt P36507). Description: Nanosyn kinase profiling, % inhibition. The format is biochemical. To be noted: panel of 230 kinases. Here is the method:
as §1, §2

Test [21] deals with MER (Homo sapiens, UniProt Q12866). The experiment in a line: Nanosyn kinase profiling, % inhibition. In kind it is biochemical. To be noted: panel of 230 kinases. The protocol:
as §1, §2

Test [22] addresses MNK2 (Homo sapiens, UniProt Q9HBH9). Description: Nanosyn kinase profiling, % inhibition. To be noted: panel of 230 kinases. In kind it is biochemical. Here is the method:
as §1, §2

The target of test [23] is MUSK (Homo sapiens, UniProt O15146). The experiment in a line: Nanosyn kinase profiling, % inhibition. The format is biochemical. To be noted: panel of 230 kinases. Here is the method: as §1, §2
MUSK, sequence (O15146 24-869): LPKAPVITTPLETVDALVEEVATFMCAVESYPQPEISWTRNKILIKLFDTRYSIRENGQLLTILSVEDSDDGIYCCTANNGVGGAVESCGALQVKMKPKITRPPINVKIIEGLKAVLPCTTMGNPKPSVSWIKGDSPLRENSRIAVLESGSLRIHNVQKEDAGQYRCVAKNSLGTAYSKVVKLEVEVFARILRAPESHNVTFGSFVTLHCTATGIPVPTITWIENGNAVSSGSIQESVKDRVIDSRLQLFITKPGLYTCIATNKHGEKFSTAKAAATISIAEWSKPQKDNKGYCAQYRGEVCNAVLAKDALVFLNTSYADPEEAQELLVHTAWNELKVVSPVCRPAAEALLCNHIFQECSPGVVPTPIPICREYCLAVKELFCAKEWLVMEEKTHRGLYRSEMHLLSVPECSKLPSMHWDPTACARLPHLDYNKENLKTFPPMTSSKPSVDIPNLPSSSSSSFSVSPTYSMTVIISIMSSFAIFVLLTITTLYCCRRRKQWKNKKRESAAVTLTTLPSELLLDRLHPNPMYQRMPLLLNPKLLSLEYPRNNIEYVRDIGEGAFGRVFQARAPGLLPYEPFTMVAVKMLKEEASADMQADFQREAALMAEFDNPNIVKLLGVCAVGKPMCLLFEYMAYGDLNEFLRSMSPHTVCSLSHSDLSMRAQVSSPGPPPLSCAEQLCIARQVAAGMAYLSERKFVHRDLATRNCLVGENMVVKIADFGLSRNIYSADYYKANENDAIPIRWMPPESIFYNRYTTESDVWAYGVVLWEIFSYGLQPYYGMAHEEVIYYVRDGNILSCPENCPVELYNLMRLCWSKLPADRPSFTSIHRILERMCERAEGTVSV
In test [24] the target is PAK1 (Homo sapiens, UniProt Q13153). Description: Nanosyn kinase profiling, % inhibition. To be noted: panel of 230 kinases. In kind it is biochemical. The protocol: as §1, §2
PAK1, sequence (Q13153 whole entry): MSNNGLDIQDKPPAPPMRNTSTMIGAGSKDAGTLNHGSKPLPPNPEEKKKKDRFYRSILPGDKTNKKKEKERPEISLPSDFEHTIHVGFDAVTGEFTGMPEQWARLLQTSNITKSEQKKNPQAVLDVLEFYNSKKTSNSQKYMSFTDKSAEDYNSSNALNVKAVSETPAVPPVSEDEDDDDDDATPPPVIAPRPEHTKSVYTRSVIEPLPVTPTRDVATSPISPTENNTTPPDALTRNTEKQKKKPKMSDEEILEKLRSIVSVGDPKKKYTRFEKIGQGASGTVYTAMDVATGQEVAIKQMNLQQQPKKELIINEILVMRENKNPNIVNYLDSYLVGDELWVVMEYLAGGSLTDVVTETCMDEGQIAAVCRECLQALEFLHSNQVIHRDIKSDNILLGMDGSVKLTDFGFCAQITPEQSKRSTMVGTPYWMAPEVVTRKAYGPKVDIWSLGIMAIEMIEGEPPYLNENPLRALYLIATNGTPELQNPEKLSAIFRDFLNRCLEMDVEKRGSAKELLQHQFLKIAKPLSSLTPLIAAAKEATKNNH
For test [25], the target named is PRKD3 (Homo sapiens, UniProt O94806). The experiment in a line: Nanosyn kinase profiling, % inhibition. To be noted: panel of 230 kinases. The format is biochemical. The protocol:
as §1, §2

Test [26] concerns the target PTK5 (Homo sapiens, UniProt P42685). Description: Nanosyn kinase profiling, % inhibition. In kind it is biochemical. To be noted: panel of 230 kinases. The protocol: as §1, §2
Test [27] deals with SIK (Homo sapiens, UniProt P57059). Description: Nanosyn kinase profiling, % inhibition. In kind it is biochemical. To be noted: panel of 230 kinases. Here is the method: as §1, §2
The target of test [28] is SPHK1 (Homo sapiens, UniProt Q9NYA1). The experiment in a line: Nanosyn kinase profiling, % inhibition. To be noted: panel of 230 kinases. The format is biochemical. Here is the method: as §1, §2
Test [29] concerns the target SPHK2 (Homo sapiens, UniProt Q9NRA0). The experiment in a line: Nanosyn kinase profiling, % inhibition. To be noted: panel of 230 kinases. The format is biochemical. The protocol:
as §1, §2

The target of test [30] is YES (Homo sapiens, UniProt P07947). Description: Nanosyn kinase profiling, % inhibition. In kind it is biochemical. To be noted: panel of 230 kinases. Here is the method: as §1, §2
Test [31] has as its target T1, EGFR(L858R) (Homo sapiens, UniProt P00533, L858R).
T1 construct: literature Ambit Biosciences
To be noted: 1 μM, duplicate, without preincubation; cited from earlier work.

In test [32] the target is EPHA2 (Homo sapiens, UniProt P29317). Set-up: literature Ambit Biosciences. To be noted: 1 μM, duplicate, without preincubation; cited from earlier work.
The target of test [33] is T2, BMPR2 (Homo sapiens, UniProt Q13873).
T2 construct: literature Ambit Biosciences
To be noted: 1 μM, duplicate, without preincubation; cited from earlier work.

Test [34] concerns the target T3, IKK-alpha (Homo sapiens, UniProt O15111).
T3 construct: literature Ambit Biosciences
To be noted: 1 μM, duplicate, without preincubation; cited from earlier work.

In test [35] the target is T4, KIT(D816V) (Homo sapiens, UniProt P10721, D816V).
T4 construct: literature Ambit Biosciences
To be noted: 1 μM, duplicate, without preincubation; cited from earlier work.

FGR, sequence (P09769 whole entry, species assumed): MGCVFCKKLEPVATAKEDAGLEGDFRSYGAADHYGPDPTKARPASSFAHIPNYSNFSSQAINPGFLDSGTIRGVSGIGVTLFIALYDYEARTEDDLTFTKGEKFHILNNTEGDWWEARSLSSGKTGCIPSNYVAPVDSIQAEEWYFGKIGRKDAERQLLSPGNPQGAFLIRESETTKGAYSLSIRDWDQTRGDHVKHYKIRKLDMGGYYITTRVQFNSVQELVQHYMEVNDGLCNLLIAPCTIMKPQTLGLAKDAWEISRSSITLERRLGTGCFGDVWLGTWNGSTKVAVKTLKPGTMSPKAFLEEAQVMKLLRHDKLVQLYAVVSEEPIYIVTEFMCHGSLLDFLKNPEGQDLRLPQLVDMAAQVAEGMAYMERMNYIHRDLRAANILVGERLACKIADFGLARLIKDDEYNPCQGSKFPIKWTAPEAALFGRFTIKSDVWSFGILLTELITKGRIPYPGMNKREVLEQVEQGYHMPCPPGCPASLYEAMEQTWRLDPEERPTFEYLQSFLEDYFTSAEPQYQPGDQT
HIPK3, sequence (Q9H422 whole entry): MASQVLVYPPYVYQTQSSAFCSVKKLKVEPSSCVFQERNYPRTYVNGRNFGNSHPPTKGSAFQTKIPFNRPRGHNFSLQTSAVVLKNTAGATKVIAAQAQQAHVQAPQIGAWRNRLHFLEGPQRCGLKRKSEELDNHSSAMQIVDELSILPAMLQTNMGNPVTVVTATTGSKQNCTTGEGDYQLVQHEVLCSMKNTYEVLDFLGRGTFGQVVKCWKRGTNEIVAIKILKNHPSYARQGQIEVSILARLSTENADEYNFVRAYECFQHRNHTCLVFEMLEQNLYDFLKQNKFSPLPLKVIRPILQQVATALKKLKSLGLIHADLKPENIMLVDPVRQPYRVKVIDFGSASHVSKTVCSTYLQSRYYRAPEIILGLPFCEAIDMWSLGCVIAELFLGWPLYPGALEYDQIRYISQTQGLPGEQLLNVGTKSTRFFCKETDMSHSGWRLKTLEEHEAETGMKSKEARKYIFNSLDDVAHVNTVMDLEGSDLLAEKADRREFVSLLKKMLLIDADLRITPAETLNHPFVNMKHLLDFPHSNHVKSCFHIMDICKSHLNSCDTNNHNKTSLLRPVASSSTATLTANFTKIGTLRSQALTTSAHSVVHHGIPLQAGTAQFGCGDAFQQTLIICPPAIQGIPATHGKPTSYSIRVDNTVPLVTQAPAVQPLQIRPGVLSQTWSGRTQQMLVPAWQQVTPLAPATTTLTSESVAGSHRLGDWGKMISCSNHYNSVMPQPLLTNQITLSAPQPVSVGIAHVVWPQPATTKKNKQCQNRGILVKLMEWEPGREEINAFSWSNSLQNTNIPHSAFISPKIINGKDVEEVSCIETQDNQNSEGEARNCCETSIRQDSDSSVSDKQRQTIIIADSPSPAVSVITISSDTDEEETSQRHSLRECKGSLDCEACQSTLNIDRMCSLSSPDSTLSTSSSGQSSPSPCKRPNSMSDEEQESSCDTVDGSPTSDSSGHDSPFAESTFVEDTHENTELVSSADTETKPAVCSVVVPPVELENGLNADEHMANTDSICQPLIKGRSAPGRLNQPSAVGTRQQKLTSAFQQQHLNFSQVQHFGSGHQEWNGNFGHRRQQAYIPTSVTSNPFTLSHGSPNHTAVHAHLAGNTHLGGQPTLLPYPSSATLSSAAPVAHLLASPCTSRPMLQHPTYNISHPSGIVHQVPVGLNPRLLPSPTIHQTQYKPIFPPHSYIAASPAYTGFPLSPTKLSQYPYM
PTK5, sequence (P42685 whole entry): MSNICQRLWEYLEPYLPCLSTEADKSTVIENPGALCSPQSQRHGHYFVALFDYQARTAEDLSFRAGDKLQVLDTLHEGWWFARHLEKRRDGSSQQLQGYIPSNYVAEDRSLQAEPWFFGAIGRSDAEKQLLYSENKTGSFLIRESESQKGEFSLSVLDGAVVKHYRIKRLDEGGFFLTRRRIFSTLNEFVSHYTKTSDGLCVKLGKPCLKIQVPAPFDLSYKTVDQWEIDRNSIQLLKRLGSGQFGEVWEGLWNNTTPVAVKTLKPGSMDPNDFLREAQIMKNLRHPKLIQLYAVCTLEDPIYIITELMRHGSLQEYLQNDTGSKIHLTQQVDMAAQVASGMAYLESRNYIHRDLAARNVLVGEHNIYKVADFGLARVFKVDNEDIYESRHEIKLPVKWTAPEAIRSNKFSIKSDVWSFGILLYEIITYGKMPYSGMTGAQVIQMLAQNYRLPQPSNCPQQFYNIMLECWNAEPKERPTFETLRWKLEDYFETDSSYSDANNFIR
ABL1, sequence (P00519 whole entry): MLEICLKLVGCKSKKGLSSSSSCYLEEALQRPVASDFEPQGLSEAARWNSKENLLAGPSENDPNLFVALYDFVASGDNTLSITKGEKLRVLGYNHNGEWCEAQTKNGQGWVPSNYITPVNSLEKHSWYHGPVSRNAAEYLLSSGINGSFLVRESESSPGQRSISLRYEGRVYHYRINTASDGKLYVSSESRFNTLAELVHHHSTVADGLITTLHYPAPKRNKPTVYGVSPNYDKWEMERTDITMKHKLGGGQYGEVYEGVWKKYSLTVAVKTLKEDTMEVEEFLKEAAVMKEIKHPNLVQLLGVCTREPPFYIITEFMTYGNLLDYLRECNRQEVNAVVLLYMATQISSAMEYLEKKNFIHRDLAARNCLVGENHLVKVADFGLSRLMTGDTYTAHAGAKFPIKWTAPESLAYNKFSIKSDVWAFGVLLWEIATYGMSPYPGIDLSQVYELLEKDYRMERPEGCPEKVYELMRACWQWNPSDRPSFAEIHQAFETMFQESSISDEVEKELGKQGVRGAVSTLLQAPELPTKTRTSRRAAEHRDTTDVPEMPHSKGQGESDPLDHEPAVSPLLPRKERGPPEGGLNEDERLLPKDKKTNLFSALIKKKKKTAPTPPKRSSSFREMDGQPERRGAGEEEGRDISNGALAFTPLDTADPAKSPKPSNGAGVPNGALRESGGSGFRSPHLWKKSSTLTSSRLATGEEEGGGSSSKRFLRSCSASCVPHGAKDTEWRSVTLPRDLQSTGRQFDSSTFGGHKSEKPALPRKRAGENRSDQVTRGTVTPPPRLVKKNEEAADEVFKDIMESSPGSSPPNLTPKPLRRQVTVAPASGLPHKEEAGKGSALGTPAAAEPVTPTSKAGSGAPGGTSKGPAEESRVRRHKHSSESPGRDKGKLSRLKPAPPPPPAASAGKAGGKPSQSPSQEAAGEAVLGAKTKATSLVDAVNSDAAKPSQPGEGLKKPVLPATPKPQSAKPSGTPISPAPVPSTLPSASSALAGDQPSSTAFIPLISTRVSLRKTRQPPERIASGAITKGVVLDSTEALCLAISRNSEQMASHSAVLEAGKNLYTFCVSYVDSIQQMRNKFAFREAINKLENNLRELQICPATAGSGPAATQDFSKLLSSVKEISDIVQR

For `CNC(=O)c1cc(Oc2ccc(NC(=O)c3nc(C(F)(F)F)[nH]c3-c3ccc(F)cc3)cc2)ccn1` [Inhibitor I-6, 4-(4-{[5-(4-Fluoro-phenyl)-2-trifluoromethyl-3H-imidazole-4-carbonyl]-amino}-phenoxy)-pyridine-2-carboxylic acid methylamide], the inhibition at 5 µM in test [1], in test [2], in [3], in test [4], in test [5] and in test [6] was no less than 50% in each case. For the same compound, the inhibition at 5 µM in [7], in test [8], in [9], in [10], in test [11] and in test [12] was no less than 50% each time. In addition, the inhibition at 5 µM in test [13], in test [14], in test [15], in [16], in [17] and in test [18] was no less than 50% in each case. The inhibition at 5 µM in test [19], in [20], in test [21], in test [22], in [23] and in [24] was no less than 50% each time. The inhibition at 5 µM in test [25], in test [26], in test [27], in [28], in [29] and in test [30] was no less than 50% in each case.
For the compound `Cc1ccc(NC(=O)c2[nH]c(C(F)(F)F)nc2-c2ccc(F)cc2)cc1Nc1ccc2ncn(C)c(=O)c2c1` [KIN-035], the “inhibition of EGFR(L858R)” value in test [31] is “X (X > 25% @ 1 μM)”. In addition, in test [32], the “inhibition of EPHA2” value is given as “XX (XX > 50% @ 1 μM)”.
Turning to `Cc1ccc(-c2nc(C(F)(F)F)[nH]c2C(=O)Nc2ccc(C)c(Nc3ccc4ncn(C)c(=O)c4c3)c2)cc1F` [KIN-038], the “inhibition of BMPR2” value in [33] was “X (X > 25% @ 1 μM)”. In test [34], the “inhibition of IKK-alpha” value is listed as “X (X > 25% @ 1 μM)”. For the same compound, the “inhibition of KIT(D816V)” value in [35] was “X (X > 25% @ 1 μM)”.
